According to US9278962B2 (Cytokinetics, Inc., priority 2011, dated 2016):

These compounds were tested on rabbit skeletal myofibrils (approximately 90% fast fibers) (assay: Activation of fast skeletal myofibrils (PUMA coupled-enzyme ATPase assay, AC1.4)). Conditions: Table 2; concentration at which the compound increased enzymatic activity by 40%; calcium at pCa25.
Assay type: biochemical

Row | Compound | Mean AC1.4
1 | CC(C)(CNc1nc(CCCNC(=O)CO)ns1)c1ccc(F)cc1 [N-[3-(5-{[2-(4-fluorophenyl)-2-methylpropyl]amino}(1,2,4-thiadiazol-3-yl))propyl]-2-hydroxyacetamide] | B (B=1-10 uM)
2 | COC(=O)NCCCc1nsc(NCC(C)(C)c2ccc(F)cc2)n1 [N-[3-(5-{[2-(4-fluorophenyl)-2-methylpropyl]amino}(1,2,4-thiadiazol-3-yl))propyl]methoxycarboxamide] | B (B=1-10 uM)
3 | CC(=O)NCCCc1nsc(NCC(C)(C)c2ccc(F)cc2)n1 [N-[3-(5-{[2-(4-fluorophenyl)-2-methylpropyl]amino}-1,2,4-thiadiazol-3-yl)propyl]acetamide] | C (C=10-20 uM)
4 | CC(C)(CNc1nc(CNC(=O)CO)ns1)c1ccc(F)cc1 [N-[(5-{[2-(4-fluorophenyl)-2-methylpropyl]amino}(1,2,4-thiadiazol-3-yl))methyl]-2-hydroxyacetamide] | B (B=1-10 uM)
5 | COC(=O)NCc1nsc(NCC(C)(C)c2ccc(F)cc2)n1 [N-[(5-{[2-(4-fluorophenyl)-2-methylpropyl]amino}(1,2,4-thiadiazol-3-yl))methyl]methoxycarboxamide] | B (B=1-10 uM)
6 | CC(=O)NCc1nsc(NCC(C)(C)c2ccc(F)cc2)n1 [N-[(5-{[2-(4-fluorophenyl)-2-methylpropyl]amino}-1,2,4-thiadiazol-3-yl)methyl]acetamide] | C (C=10-20 uM)
7 | COc1cccc(Cc2nsc(NCCc3ccc(Cl)cc3Cl)n2)c1 [[2-(2,4-dichlorophenyl)ethyl]{3-[(3-methoxyphenyl)methyl](1,2,4-thiadiazol-5-yl)}amine] | C (C=10-20 uM)
8 | Cc1ccc(Cc2nsc(NCCc3ccc(Cl)cc3Cl)n2)cc1 [[2-(2,4-dichlorophenyl)ethyl]{3-[(4-methylphenyl)methyl](1,2,4-thiadiazol-5-yl)}amine] | D (D=>20 uM)
9 | Cc1ccc(Cc2nsc(NCCc3c(Cl)cccc3Cl)n2)cc1 [[2-(2,6-dichlorophenyl)ethyl]{3-[(4-methylphenyl)methyl](1,2,4-thiadiazol-5-yl)}amine] | D (D=>20 uM)
10 | COc1cccc(Cc2nsc(NCCc3ccccc3Cl)n2)c1 [[2-(2-chlorophenyl)ethyl]{3-[(3-methoxyphenyl)methyl](1,2,4-thiadiazol-5-yl)}amine] | D (D=>20 uM)
11 | Fc1ccc(Cc2nsc(NCCc3ccccc3Cl)n2)cc1 [[2-(2-chlorophenyl)ethyl]{3-[(4-fluorophenyl)methyl](1,2,4-thiadiazol-5-yl)}amine] | D (D=>20 uM)
12 | Cc1ccc(Cc2nsc(NCCc3ccccc3Cl)n2)cc1 [[2-(2-chlorophenyl)ethyl]{3-[(4-methylphenyl)methyl](1,2,4-thiadiazol-5-yl)}amine] | D (D=>20 uM)
13 | COc1cccc(Cc2nsc(NCCc3ccc(Cl)c(Cl)c3)n2)c1 [[2-(3,4-dichlorophenyl)ethyl]{3-[(3-methoxyphenyl)methyl](1,2,4-thiadiazol-5-yl)}amine] | B (B=1-10 uM)
14 | Clc1ccc(Cc2nsc(NCCc3ccc(Cl)c(Cl)c3)n2)cc1 [[2-(3,4-dichlorophenyl)ethyl]{3-[(4-chlorophenyl)methyl](1,2,4-thiadiazol-5-yl)}amine] | C (C=10-20 uM)
15 | Cc1ccc(Cc2nsc(NCCc3ccc(Cl)c(Cl)c3)n2)cc1 [[2-(3,4-dichlorophenyl)ethyl]{3-[(4-methylphenyl)methyl](1,2,4-thiadiazol-5-yl)}amine] | B (B=1-10 uM)
16 | COc1cccc(Cc2nsc(NCCc3ccc(F)c(F)c3)n2)c1 [[2-(3,4-difluorophenyl)ethyl]{3-[(3-methoxyphenyl)methyl](1,2,4-thiadiazol-5-yl)}amine] | B (B=1-10 uM)

Row | Compound | Mean AC1.4
17 | Fc1ccc(Cc2nsc(NCCc3ccc(F)c(F)c3)n2)cc1 [[2-(3,4-difluorophenyl)ethyl]{3-[(4-fluorophenyl)methyl](1,2,4-thiadiazol-5-yl)}amine] | C (C=10-20 uM)
18 | COc1cccc(Cc2nsc(NCCc3cc(F)cc(F)c3)n2)c1 [[2-(3,5-difluorophenyl)ethyl]{3-[(3-methoxyphenyl)methyl](1,2,4-thiadiazol-5-yl)}amine] | D (D=>20 uM)
19 | COc1cccc(Cc2nsc(NCCc3cccc(Cl)c3)n2)c1 [[2-(3-chlorophenyl)ethyl]{3-[(3-methoxyphenyl)methyl](1,2,4-thiadiazol-5-yl)}amine] | C (C=10-20 uM)
20 | Clc1ccc(Cc2nsc(NCCc3cccc(Cl)c3)n2)cc1 [[2-(3-chlorophenyl)ethyl]{3-[(4-chlorophenyl)methyl](1,2,4-thiadiazol-5-yl)}amine] | D (D=>20 uM)
21 | Cc1ccc(Cc2nsc(NCCc3cccc(Cl)c3)n2)cc1 [[2-(3-chlorophenyl)ethyl]{3-[(4-methylphenyl)methyl](1,2,4-thiadiazol-5-yl)}amine] | B (B=1-10 uM)
22 | COc1cccc(Cc2nsc(NCCc3cccc(F)c3)n2)c1 [[2-(3-fluorophenyl)ethyl]{3-[(3-methoxyphenyl)methyl](1,2,4-thiadiazol-5-yl)}amine] | C (C=10-20 uM)
23 | Nc1ccc(CCNc2nc(Cc3ccc(F)cc3)ns2)cc1 [[2-(4-aminophenyl)ethyl]{3-[(4-fluorophenyl)methyl](1,2,4-thiadiazol-5-yl)}amine] | D (D=>20 uM)
24 | CC(C)Cc1nsc(NCC(C)(C)c2ccc(Cl)cc2)n1 [[2-(4-chlorophenyl)-2-methylpropyl][3-(2-methylpropyl)(1,2,4-thiadiazol-5-yl)]amine] | B (B=1-10 uM)
25 | COc1cccc(Cc2nsc(NCC(C)(C)c3ccc(Cl)cc3)n2)c1 [[2-(4-chlorophenyl)-2-methylpropyl]{3-[(3-methoxyphenyl)methyl](1,2,4-thiadiazol-5-yl)}amine] | A (A=<1 uM)
26 | CC(C)(CNc1nc(Cc2ccc(F)cc2)ns1)c1ccc(Cl)cc1 [[2-(4-chlorophenyl)-2-methylpropyl]{3-[(4-fluorophenyl)methyl](1,2,4-thiadiazol-5-yl)}amine] | A (A=<1 uM)
27 | COc1ccc(Cc2nsc(NCC(C)(C)c3ccc(Cl)cc3)n2)cc1 [[2-(4-chlorophenyl)-2-methylpropyl]{3-[(4-methoxyphenyl)methyl](1,2,4-thiadiazol-5-yl)}amine] | A (A=<1 uM)
28 | CC(Cc1ccc(Cl)cc1)Nc1nc(Cc2ccc(F)cc2)ns1 (stereo not drawn) [[2-(4-chlorophenyl)-isopropyl]{3-[(4-fluorophenyl)methyl](1,2,4-thiadiazol-5-yl)}amine] | D (D=>20 uM)
29 | COc1cccc(Cc2nsc(NCCc3ccc(Cl)cc3)n2)c1 [[2-(4-chlorophenyl)ethyl]{3-[(3-methoxyphenyl)methyl](1,2,4-thiadiazol-5-yl)}amine] | B (B=1-10 uM)
30 | Clc1ccc(CCNc2nc(Cc3ccc(Cl)cc3)ns2)cc1 [[2-(4-chlorophenyl)ethyl]{3-[(4-chlorophenyl)methyl](1,2,4-thiadiazol-5-yl)}amine] | C (C=10-20 uM)
31 | Fc1ccc(Cc2nsc(NCCc3ccc(Cl)cc3)n2)cc1 [[2-(4-chlorophenyl)ethyl]{3-[(4-fluorophenyl)methyl](1,2,4-thiadiazol-5-yl)}amine] | B (B=1-10 uM)

Same assay, conditions: Table 3; concentration at which the compound increased enzymatic activity by 40%; calcium at pCa25

Row | Compound | Mean AC1.4
32 | Cn1nccc1-c1nnc(NC[C@]2(c3ncccc3F)C[C@H](F)C2)s1 [N-((3-fluoro-1-(3-fluoropyridin-2-yl)cyclobutyl)methyl)-5-(1-methyl-1H-pyrazol-5-yl)-1,3,4-thiadiazol-2-amine] | D (D=>20 uM)
33 | Cc1ccc(F)c(-c2nnc(NC[C@]3(c4ncccc4F)C[C@H](F)C3)s2)c1 [N-((3-fluoro-1-(3-fluoropyridin-2-yl)cyclobutyl)methyl)-5-(2-fluoro-5-methylphenyl)-1,3,4-thiadiazol-2-amine] | A (A=<1 uM)
34 | C=Cc1ccc(F)c(-c2nnc(NC[C@]3(c4ncccc4F)C[C@H](F)C3)s2)c1 [N-((3-fluoro-1-(3-fluoropyridin-2-yl)cyclobutyl)methyl)-5-(2-fluoro-5-vinylphenyl)-1,3,4-thiadiazol-2-amine] | A (A=<1 uM)
35 | Fc1ccccc1-c1nnc(NC[C@]2(c3ncccc3F)C[C@H](F)C2)s1 [N-((3-fluoro-1-(3-fluoropyridin-2-yl)cyclobutyl)methyl)-5-(2-fluorophenyl)-1,3,4-thiadiazol-2-amine] | A (A=<1 uM)
36 | CSc1ncc(C)c(-c2nnc(NC[C@]3(c4ncccc4F)C[C@H](F)C3)s2)n1 [N-((3-fluoro-1-(3-fluoropyridin-2-yl)cyclobutyl)methyl)-5-(5-methyl-2-(methylthio)pyrimidin-4-yl)-1,3,4-thiadiazol-2-amine] | B (B=1-10 uM)
37 | Fc1cccnc1[C@]1(CNc2nnc(-c3ccon3)s2)C[C@@H](F)C1 [N-((3-fluoro-1-(3-fluoropyridin-2-yl)cyclobutyl)methyl)-5-(isoxazol-3-yl)-1,3,4-thiadiazol-2-amine] | C (C=10-20 uM)
38 | Fc1cccnc1[C@]1(CNc2nnc(-c3ccccn3)s2)C[C@@H](F)C1 [N-((3-fluoro-1-(3-fluoropyridin-2-yl)cyclobutyl)methyl)-5-(pyridin-2-yl)-1,3,4-thiadiazol-2-amine] | B (B=1-10 uM)
39 | Cc1ccsc1-c1nnc(NC[C@]2(c3ncccc3F)C[C@@H](F)C2)s1 [N-(((cis)-3-fluoro-1-(3-fluoropyridin-2-yl)cyclobutyl)methyl)-5-(3-methylthiophen-2-yl)-1,3,4-thiadiazol-2-amine] | B (B=1-10 uM)
40 | Cc1ccc(-c2nnc(NC[C@]3(c4ncccc4F)C[C@@H](F)C3)s2)s1 [N-(((cis)-3-fluoro-1-(3-fluoropyridin-2-yl)cyclobutyl)methyl)-5-(5-methylthiophen-2-yl)-1,3,4-thiadiazol-2-amine] | D (D=>20 uM)
41 | Cc1ccsc1-c1nnc(NC[C@]2(c3ncccc3F)C[C@H](F)C2)s1 [N-(((trans)-3-fluoro-1-(3-fluoropyridin-2-yl)cyclobutyl)methyl)-5-(3-methylthiophen-2-yl)-1,3,4-thiadiazol-2-amine] | B (B=1-10 uM)
42 | Cc1ccc(-c2nnc(NC[C@]3(c4ncccc4F)C[C@H](F)C3)s2)s1 [N-(((trans)-3-fluoro-1-(3-fluoropyridin-2-yl)cyclobutyl)methyl)-5-(5-methylthiophen-2-yl)-1,3,4-thiadiazol-2-amine] | B (B=1-10 uM)
